The record followed here is ChEMBL document CHEMBL1136665 (Bioorg Med Chem Lett, 2003).

The term IC50 denotes the midpoint of a concentration-inhibition curve. Lower therefore signals higher potency. One may read the Cmax as the maximum level reached in the sampled fluid or tissue. What is called bioavailability is dose-corrected exposure relative to a reference, in per cent. The solubility is the dissolved amount per volume that the medium holds. Lower therefore signals little dissolved substance.

Structures are written as SMILES.

Data set [1] addresses T1, Prostaglandin G/H synthase 2 (Homo sapiens, UniProt P35354).
T1 sequence (P35354 whole entry): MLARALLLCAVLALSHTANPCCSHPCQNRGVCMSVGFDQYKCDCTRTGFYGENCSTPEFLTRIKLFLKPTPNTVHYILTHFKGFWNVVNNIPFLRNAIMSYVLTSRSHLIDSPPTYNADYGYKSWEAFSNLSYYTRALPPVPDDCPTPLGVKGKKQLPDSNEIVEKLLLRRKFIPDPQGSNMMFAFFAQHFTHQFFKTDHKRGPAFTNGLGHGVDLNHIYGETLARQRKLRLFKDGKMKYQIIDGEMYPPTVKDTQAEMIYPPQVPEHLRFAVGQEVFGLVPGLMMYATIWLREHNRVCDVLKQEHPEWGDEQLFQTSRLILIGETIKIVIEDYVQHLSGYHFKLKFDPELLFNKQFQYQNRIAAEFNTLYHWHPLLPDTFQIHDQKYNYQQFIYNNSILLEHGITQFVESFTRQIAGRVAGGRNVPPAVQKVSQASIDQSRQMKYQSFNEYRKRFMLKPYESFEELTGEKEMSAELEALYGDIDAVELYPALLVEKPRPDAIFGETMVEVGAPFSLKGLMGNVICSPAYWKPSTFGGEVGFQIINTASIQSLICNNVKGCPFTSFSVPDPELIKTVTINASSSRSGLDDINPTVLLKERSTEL
In words: Inhibitory concentration was measured against Cyclooxygenase-2 in human whole blood. Type of data set: tissue-based.

Data set [2] is described as follows: Peak plasma concentration (Cmax) following an oral dose of […] mg/kg in rats. The data set is classed as ADME, organism-based. Particulars: rat, 20 mg/kg.
Data set [3] has as its system Rattus norvegicus. In words: Inhibition of carrageenan induced rat paw oedema. The data set is classed as functional. In general terms: Carrageenan injected into the paw causes an acute inflammation.
Data set [4] in a line: Clearance rate following an oral dose of 20 mg/kg in rats. Type of data set: ADME, organism-based. Further details: dose 20 mg/kg, route oral. To be noted: rat, in vivo, read-out: Clearance.
In data set [5] the target is T1, Prostaglandin G/H synthase 2.
Data set [6] has as its target T2, Prostaglandin G/H synthase 1 (Homo sapiens, UniProt P23219). In words: Inhibitory concentration was measured […] the sensitive U937 microsome assay. The data set is classed as microsomes.
The target in data set [7] is T2, Prostaglandin G/H synthase 1. Type of data set: microsomes.
Description: Inhibitory concentration was measured against Prostaglandin G/H synthase 1 in the sensitive U937 microsome assay
Data set [8] deals with T1, Prostaglandin G/H synthase 2. The source holds these as a separate data set.
Description: Inhibitory concentration was measured against Prostaglandin G/H synthase 2 in human whole blood
Data set [9] deals with T2, Prostaglandin G/H synthase 1. Type of data set: tissue-based, Blood.
Description: Inhibitory concentration was measured against Prostaglandin G/H synthase 1 in human whole blood
Data set [10] can be described thus: Oral bioavailability in rat. Type of data set: ADME, organism-based. Particulars: in vivo.
For data set [11], the species on record is Rattus norvegicus. Description: Inhibitory dose to produce analgesia was determined in rats. The data set is classed as functional. Particulars: read-out: ID50 (the source's name).
Data set [12] is filed under the species Rattus norvegicus. Description: Inhibitory dose to reduce arthritis was determined in rats. Type of data set: functional. Particulars: read-out: ID50 (the source's name).
The nature of data set [13]: Aqueous solubility was determined. Type of data set: physicochemical.
The species entered for data set [14] is Rattus norvegicus. In words: Effective concentration to reduce pyrexia was determined in rats. The data set is classed as functional.

T2 sequence (P23219 whole entry): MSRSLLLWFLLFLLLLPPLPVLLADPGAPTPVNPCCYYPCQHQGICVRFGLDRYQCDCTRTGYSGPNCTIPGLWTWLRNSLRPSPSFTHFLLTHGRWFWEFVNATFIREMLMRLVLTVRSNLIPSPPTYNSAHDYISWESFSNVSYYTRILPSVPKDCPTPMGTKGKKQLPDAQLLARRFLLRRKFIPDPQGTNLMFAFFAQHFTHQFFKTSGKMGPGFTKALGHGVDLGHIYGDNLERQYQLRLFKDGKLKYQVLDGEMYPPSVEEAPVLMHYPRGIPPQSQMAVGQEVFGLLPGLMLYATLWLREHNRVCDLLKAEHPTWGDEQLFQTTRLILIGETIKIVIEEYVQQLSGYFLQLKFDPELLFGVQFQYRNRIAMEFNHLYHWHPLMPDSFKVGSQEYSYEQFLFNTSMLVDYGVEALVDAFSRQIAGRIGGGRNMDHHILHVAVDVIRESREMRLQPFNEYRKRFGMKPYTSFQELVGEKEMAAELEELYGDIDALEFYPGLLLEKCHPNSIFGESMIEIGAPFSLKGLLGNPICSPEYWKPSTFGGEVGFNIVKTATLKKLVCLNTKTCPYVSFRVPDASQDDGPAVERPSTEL

On to `CC1(O)OC(=O)C(c2ccc(F)cc2)=C1c1ccc(S(C)(=O)=O)cc1` (configuration not stated), for which the IC50 was 1.8 µM in [1], 0.38 µM in data set [5] and more than 100 µM in [6]. In data set [2], this compound had a Cmax of 60 µM. This compound showed an ED50 in the data set with Rattus norvegicus [3] of 1.8 mg/kg. The CL/F in [4] stood at 2.6 mL/min.

On to `CC(C)OC1(C)OC(=O)C(c2ccc(F)cc2)=C1c1ccc(S(C)(=O)=O)cc1` (configuration not stated), for which the IC50 in data set [7] is 3 µM; in data set [8] it was 0.8 µM.

In the data set on Rattus norvegicus [3], `CC1(O)OC(=O)C(c2ccc(Cl)c(Cl)c2)=C1c1ccc(S(C)(=O)=O)cc1` (configuration not stated) returned an ED50 of 1.9 mg/kg. In addition, the IC50 came out at 35 µM in data set [7], 0.07 µM in data set [5], 75 µM in data set [9] and 0.85 µM in [8].

For `CC1(O)OC(=O)C(c2ccc(Cl)cc2Cl)=C1c1ccc(S(C)(=O)=O)cc1` (configuration not stated), the results for the IC50 in [7], in data set [5] and in data set [8] were more than 100 µM, 1.2 µM and 7.5 µM, respectively.

Turning to `CC1(O)OC(=O)C(c2ccc3ccccc3c2)=C1c1ccc(S(C)(=O)=O)cc1` (configuration not stated), the ED50 with Rattus norvegicus [3] is more than 10 mg/kg. Besides, the results for the IC50 in data set [7], in data set [5] and in data set [8] were 30 µM, 0.45 µM and 3.2 µM, respectively.

For `CC1(O)OC(=O)C(c2ccccc2)=C1c1ccc(S(C)(=O)=O)cc1` (configuration not stated), the ED50 with Rattus norvegicus [3] is 1.5 mg/kg. In addition, the IC50 is more than 100 µM in data set [7], 0.16 µM in [5], more than 90 µM in data set [9] and 1.2 µM in data set [8].

Consider `CC1(O)OC(=O)C(Sc2ccccc2)=C1c1ccc(S(C)(=O)=O)cc1` (configuration not stated), for which the results for the IC50 in data set [7], in data set [5] and in data set [8] were more than 10 µM, more than 5 µM and more than 10 µM, respectively.

Regarding `COC1(C)OC(=O)C(c2ccc(F)cc2)=C1c1ccc(S(C)(=O)=O)cc1` (configuration not stated), the IC50 in [1] was 0.1 µM; in data set [7] it was 14 µM; in data set [5] it was 0.069 µM; in data set [9], 57 µM. Moreover, the ED50 in the data set with Rattus norvegicus [3] stood at 2.8 mg/kg.

In the case of `CC1(OCC(F)(F)F)OC(=O)C(c2ccc(F)cc2)=C1c1ccc(S(C)(=O)=O)cc1` (configuration not stated), in the data set on Rattus norvegicus [3], the ED50 is 6.4 mg/kg. In addition, the IC50 was more than 10 µM in data set [7], 0.32 µM in data set [5] and 0.4 µM in data set [8]. Besides, the bioavailability in [10] came out at 35%.

As for `CC1(O)OC(=O)C(Oc2ccc(F)c(F)c2)=C1c1ccc(S(C)(=O)=O)cc1` (configuration not stated), the IC50 in data set [7] is more than 10 µM; in [5], more than 5 µM; in data set [8], more than 33 µM.

Consider `CC(C)c1ccc(C2=C(c3ccc(S(C)(=O)=O)cc3)C(C)(O)OC2=O)cc1` (configuration not stated), for which the IC50 in data set [7] is more than 300 µM; in data set [5], 0.41 µM; in [9], more than 100 µM; in data set [8], 4.3 µM.

For `CC1(O)OC(=O)C(c2ccsc2)=C1c1ccc(S(C)(=O)=O)cc1` (configuration not stated), the results for the IC50 in data set [7], in data set [5] and in data set [8] were more than 100 µM, 0.11 µM and 24 µM, respectively.

On to `CC(=O)/C(=C(\C(=O)[O-])c1ccc(Cl)cc1)c1ccc(S(C)(=O)=O)cc1.[Na+]`, for which the ED50 in the data set listed under Rattus norvegicus [11] is 0.8 mg/kg; in the data set on Rattus norvegicus [3], 1.8 mg/kg; in the data set listed under Rattus norvegicus [12] it was 0.6 mg/kg; in the data set filed under Rattus norvegicus [14], 0.7 mg/kg. This compound showed a solubility in data set [13] of more than 100 mg/mL.

As to `CC1(O)OC(=O)C(c2cccc(F)c2)=C1c1ccc(S(C)(=O)=O)cc1` (configuration not stated), in the data set with Rattus norvegicus [3], the ED50 was more than 10 mg/kg. The IC50 is more than 100 µM in data set [7], 0.25 µM in data set [5] and 12.8 µM in data set [8].

On to `CC1(O)OC(=O)C(c2ccc(Br)cc2)=C1c1ccc(S(C)(=O)=O)cc1` (configuration not stated), for which, in the data set on Rattus norvegicus [3], the ED50 turned out to be 1.6 mg/kg. The IC50 was 101 µM in [7], 0.14 µM in data set [5], more than 100 µM in data set [9] and 1.7 µM in [8].

As for `CC1(O)OC(=O)C(c2cccs2)=C1c1ccc(S(C)(=O)=O)cc1` (configuration not stated), the IC50 in data set [7] was more than 100 µM; in data set [5], 1.9 µM; in data set [8], more than 33 µM.

In turn, `CC1(O)OC(=O)C(c2ccc(Cl)cc2)=C1c1ccc(S(C)(=O)=O)cc1` (configuration not stated) returned an ED50 in the data set with Rattus norvegicus [3] of 1.4 mg/kg. Moreover, the 50% inhibitory concentration (IC50) turned out to be 105 µM in [7] and 0.11 µM in data set [5].

As for `CSc1ccc(C2=C(c3ccc(S(C)(=O)=O)cc3)C(C)(O)OC2=O)cc1` (configuration not stated), the IC50 in [7] came to 7 µM; in [5], 0.31 µM; in data set [9], 38 µM; in data set [8], 1.7 µM.

Compound `CC1(O)OC(=O)C(c2cc3ccccc3s2)=C1c1ccc(S(C)(=O)=O)cc1` (configuration not stated) gave an IC50 in data set [7] of more than 100 µM.

In the case of `CCOC1(C)OC(=O)C(c2ccc(F)cc2)=C1c1ccc(S(C)(=O)=O)cc1` (configuration not stated), the IC50 in [7] was 10 µM; in data set [8] it was 0.5 µM.

Consider `CC1(O)OC(=O)C(c2ccc(O)cc2)=C1c1ccc(S(C)(=O)=O)cc1` (configuration not stated), for which the values for the IC50 in data set [7], in data set [5] and in data set [8] were more than 10 µM, more than 5 µM and more than 33 µM, respectively.

On to `CC1(O)OC(=O)C(c2ccc(F)c(Cl)c2)=C1c1ccc(S(C)(=O)=O)cc1` (configuration not stated), for which the concentration for half-maximal inhibition (IC50) in [7] was 81 µM; in data set [5], 0.11 µM; in data set [8], 2.2 µM.

For `CC1(O)OC(=O)C(c2ccc(F)c(F)c2)=C1c1ccc(S(C)(=O)=O)cc1` (configuration not stated), the ED50 in the data set with Rattus norvegicus [3] was more than 10 mg/kg. The figures for the half-maximal inhibitory concentration (IC50) in data set [7], in data set [5] and in [8] were more than 300 µM, 0.2 µM and 6.3 µM, respectively.

For the compound `CC(=O)/C(=C(\C(=O)[O-])c1ccccc1)c1ccc(S(C)(=O)=O)cc1.[Na+]`, in [13], the solubility was more than 100 mg/mL.

Turning to `CC1(O)OC(=O)C(c2cc(F)cc(F)c2)=C1c1ccc(S(C)(=O)=O)cc1` (configuration not stated), the IC50 is more than 100 µM in [7], 0.55 µM in data set [5], more than 90 µM in data set [9] and 13.4 µM in data set [8].

As for `Cc1ccc(-c2cc(C(F)(F)F)nn2-c2ccc(S(N)(=O)=O)cc2)cc1` [CELECOXIB], in the data set on Rattus norvegicus [3], the ED50 was 3.2 mg/kg.

`CS(=O)(=O)c1ccc(C2=C(c3ccccc3)C(=O)OC2)cc1` [ROFECOXIB]: in the data set with Rattus norvegicus [3], the ED50 was determined as 1.5 mg/kg.
